Data reported in patent US9670162B2, “Mitochondrial aldehyde dehyrogenase-2 modulators and methods of use thereof” (The Board of Trustees of the Leland Stanford Junior …, priority 2013, dated 2017).
Residue numbers refer to the chain shown, from its start.

How the values were obtained:
[1] = target: T1, human ALDH2*2 recombinant mutant enzyme (E487K) (Homo sapiens, UniProt P05091, E504K); experiment: ALDH2 enzymatic assay (NADH at 340 nm), recombinant mutant enzyme; type: biochemical; design: key: −: no activation or inhibition; +: activation less than control 1; ++: activation similar to control 1, within 10%; +++: activation more than control 1 and less than control (compound 161); ++++: activation similar to compound 161, within 10%; details: activation relative to benchmarks control 1 and compound 161
T1 construct: His-tag (pTrcHis vector) (N); made in house; host or cells: E. coli BL21
T1 sequence (P05091 18-517 E504K): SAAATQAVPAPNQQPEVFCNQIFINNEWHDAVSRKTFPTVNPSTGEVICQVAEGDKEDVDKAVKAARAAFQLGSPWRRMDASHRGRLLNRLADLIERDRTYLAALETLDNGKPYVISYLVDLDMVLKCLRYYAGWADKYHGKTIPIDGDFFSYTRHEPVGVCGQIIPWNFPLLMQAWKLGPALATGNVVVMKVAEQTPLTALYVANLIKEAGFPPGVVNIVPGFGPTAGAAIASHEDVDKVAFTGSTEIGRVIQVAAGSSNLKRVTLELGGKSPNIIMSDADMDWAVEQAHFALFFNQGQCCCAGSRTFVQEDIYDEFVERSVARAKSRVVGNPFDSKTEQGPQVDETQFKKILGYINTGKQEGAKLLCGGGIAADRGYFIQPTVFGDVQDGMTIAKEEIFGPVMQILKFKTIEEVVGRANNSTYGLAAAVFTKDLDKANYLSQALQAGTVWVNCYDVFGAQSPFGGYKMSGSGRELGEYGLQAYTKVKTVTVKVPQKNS
Text: (§1) ALDH2 catalyzes the oxidative reaction of substrate acetaldehyde to acetic acid using NAD^+ as a cofactor. Enzymatic activity, or catalytic rate, of aldehyde dehydrogenase (ALDH2) can be measured spectrophotometrically at UV wavelength λ340 nm by the accumulation of reduced product NADH derived from NAD^+. […] This method is well-established in the literature [e.g. D. K. Rex, W. F. Bosron, J. E. Smialek, T. K. Li, Alcohol Clin Exp Res 9, 147 (1985)].
(§2) Full-length wild type human ALDH2 cDNA was purchased from ATCC (No. MGC-1806. GenBank ID: BC002967). The 18-amino acid mitochondria transport signal sequence was removed by PCR and cloned into the NheI/HindIII sites of a His-tag vector, pTrcHis, using standard molecular cloning techniques. The human ALDH2* cDNA construct containing the Asian E487K mutation was obtained by site-directed mutagenesis to create the E487K substitution of the wild type ALDH2. Both human clones were designed to express a recombinant protein with the His-tag at the N-terminus of the protein. For the co-expression experiments of human ALDH2 wild type and ALDH2*2 heterotetramers, a wild type ALDH2 gene and a ALDH2 E487K gene were inserted separately into the two multiple cloning sites of pETDuet-1 vector. (Novagen, Calif., USA). All the vectors were transformed into BL21 E. coli host cells and subjected to 0.5 mM IPTG induction for protein expression at 30° C. Purifications of the recombinant proteins by affinity nickel columns (HisTrap, GE Healthy Science, USA) were carried out using standard protocols according to manufacturer's instructions (Novagen, USA).
(§3) Control 1 and compound 161 are used as benchmarks and the symbols have the following representation: […]

human ALDH2 wild type = target: T2, human ALDH2 wild type (Homo sapiens, UniProt P05091); experiment: ALDH2 enzymatic assay (NADH at 340 nm), recombinant wild type enzyme; type: biochemical; design: key: −: no activation or inhibition; +: activation less than control 1; ++: activation similar to control 1, within 10%; +++: activation more than control 1 and less than control (compound 161); ++++: activation similar to compound 161, within 10%; details: activation relative to benchmarks control 1 and compound 161
T2 construct: His-tag (pTrcHis vector) (N); made in house; host or cells: E. coli BL21
T2 sequence (P05091 18-517): T1 sequence (P05091 18-517 E504K) with K487E
Text: as §1, §2, §3

ALDH2 (mutant) [1] | ALDH2 (wild-type) (human ALDH2 wild type) | Structure (SMILES)
++ | + | O=C(NCc1ccc(F)c(F)c1)c1c(Cl)cccc1OCC1CC1 [Compound 155]
+++ | ++ | COc1ccc(CNC(=O)c2c(Cl)cccc2OC2CCCC2)cc1F [Compound 146]
+ | + | COc1ccc(CNC(=O)c2cc(Br)ccc2C)cc1 [Compound 115]
+ | + | CCCS(=O)(=O)c1nccc(Cl)c1C(=O)NCc1ccc(OC)c(F)c1 [Compound 221]
++ | ++ | CCC(CC)Oc1nccc(Cl)c1C(=O)NCc1ccc(OC)c(F)c1 [Compound 201]
++ | ++ | CCOc1nccc(Cl)c1C(=O)NCc1ccc(OC)c(F)c1 [Compound 193]
+++ | ++ | COc1ccc(CNC(=O)c2c(OCC3CC3)ccnc2Cl)cc1F [Compound 170]
++ | ++ | COc1ccc(CNC(=O)c2c(Cl)ccnc2OC2CC2)cc1F [Compound 196]
++ | + | COc1ncc(CNC(=O)c2c(Cl)ccnc2OCC2CC2)cc1F [Compound 246]
− | + | O=C1OCc2cc(CNC(=O)c3c(Cl)ccnc3OCC3CC3)ccc21 [Compound 258]
++ | + | CCC(C)Sc1nccc(Cl)c1C(=O)NCc1ccc(OC)c(F)c1 (centres unmarked) [Compound 217]
++ | ++ | COc1ccc(CNC(=O)c2c(Cl)ccnc2OC(C)C)cc1F [Compound 195]
+ | + | O=C(O)c1ccc(CNC(=O)c2c(Cl)cccc2Br)cc1 [Compound 127]
++ | ++ | COc1ccc(CNC(=O)c2c(Cl)ccnc2NCC2CC2)cc1F [Compound 160]
+ | + | COc1ccc(CNC(=O)c2ccc(Br)cc2C)cc1 [Compound 116]
+ | + | COc1ccc(CNC(=O)c2c(C)ccnc2OCC2CCCC2)cc1F [Compound 236]
++ | + | COc1ccc(CNC(=O)c2c(Cl)ccnc2OCCN(C)C)cc1F [Compound 184]
+ | + | O=C(NCc1ccc2c(c1)OCO2)c1c(Cl)cccc1NC1CCCNC1 (centres unmarked) [Compound 133]
+ | + | COc1ccc(CNC(=O)c2c(C)cccc2Br)cc1F [Compound 125]
++ | ++ | COc1ccc(CNC(=O)c2c(Cl)cccc2Cl)cc1F [Compound 102]
++ | + | COc1ccc(CNC(=O)c2c(Cl)cccc2OCCC(C)C)cc1F [Compound 122]
++ | ++ | CCSc1nccc(Cl)c1C(=O)NCc1ccc(OC)c(F)c1 [Compound 214]
++ | ++ | COCCOc1cccc(Cl)c1C(=O)NCc1ccc(OC)c(F)c1 [Compound 143]
+ | + | CS(=O)(=O)c1ccc(CNc2cccc(Cl)c2C(=O)NCc2ccc3c(c2)OCO3)cc1 [Compound 118]
− | − | COc1ccc(CNC(=O)c2c(Cl)cccc2NCc2ccc(Cl)cc2)cc1F [Compound 130]

ALDH2 (mutant) [1] | ALDH2 (wild-type) (human ALDH2 wild type) | Structure (SMILES)
++ | +++ | COc1ccc(CNC(=O)c2c(Cl)cccc2OC(C)C2CC2)cc1F (centres unmarked) [Compound 150]
+ | + | COc1ccc(CNC(=O)c2c(Cl)cccc2Br)cc1Cl [Compound 104]
+++ | +++ | COc1ccc(CNC(=O)c2c(Cl)cccc2OCC2CCC2)cc1F [Compound 144]
+ | + | O=C(NCc1ccc([N+](=O)[O-])cc1)c1c(Cl)cccc1Br [Compound 128]
+++ | +++ | CCCOc1cccc(Cl)c1C(=O)NCc1ccc(OC)c(F)c1 [Compound 147]
+ | + | COc1ccc(CNS(=O)(=O)c2c(Cl)cccc2NCC2CC2)cc1F [Compound 163]
+ | + | COc1ccc(CNC(=O)c2c(Cl)ccnc2OCC2CC2)cc1C [Compound 256]
++ | + | COc1ccc(CNC(=O)c2c(Cl)ccnc2NCC(C)C)cc1F [Compound 182]
+ | + | COc1c(F)cc(CNC(=O)c2c(Cl)ccnc2OCC(C)C)cc1F [Compound 252]
++++ | ++++ | COc1cc(F)c(CNC(=O)c2c(Cl)ccnc2OCC2CC2)cc1F [Compound 190]
+ | + | COc1ccc(CNC(=O)c2c(Cl)cccc2OCC(C)(C)N(C)C)cc1F [Compound 167]
+ | + | COc1ccc(CNC(=O)c2c(C(F)(F)F)ccnc2OCC2CC2)cc1F [Compound 225]
++ | ++ | COc1ccc(CNC(=O)c2c(Cl)ccnc2SC)cc1F [Compound 213]
++ | + | O=C(NCc1ccc(OC(F)(F)F)c(F)c1)c1c(Cl)ccnc1OCC1CC1 [Compound 187]
+ | + | COc1ccc(CNC(=O)c2c(Cl)cccc2Oc2ccc(C)cc2)cc1F [Compound 132]
+ | + | COc1cc(CNC(=O)c2c(Cl)ccnc2OCC2CC2)ccc1F [Compound 172]
− | − | O=C(NCc1ccc(O)c(F)c1)c1c(Cl)ccnc1OCC1CC1 [Compound 248]
++ | ++ | COc1ccc(CNC(=O)c2c(Cl)ccnc2Cl)cc1F [Compound 157]
++ | + | COc1ccc(CNC(=O)c2c(C)ccnc2OCC2CC2)cc1F [Compound 231]
+ | + | COc1ccc(CNC(=O)c2c(Cl)cc[n+]([O-])c2Cl)cc1F [Compound 168]
+++ | +++ | COc1ccc(CNC(=O)c2c(Cl)cccc2OCC2CC2C)cc1F (centres unmarked) [Compound 152]
+ | + | COc1ccc(C(C)NC(=O)c2c(Cl)ccnc2OCC2CC2)cc1F (centres unmarked) [Compound 249]
+ | + | CS(=O)(=O)c1ccc(CNC(=O)c2c(Cl)ccnc2OCC2CC2)cc1F [Compound 253]
+ | + | COc1ccc(CNS(=O)(=O)c2c(Cl)cccc2Cl)cc1F [Compound 154]
